Consider 21 molecules from patent US8895558B2, “Arylpiperazine-containing pyrrole 3-carboxamide derivatives for treating depressive disorders” (Green Cross Corporation, priority 2008, dated 2014).

The structures appear in SMILES notation.

For assay [1], the target named is T1, human serotonin transporter (Homo sapiens, UniProt P31645).
T1 construct: purchased PerkinElmer; host or cells: HEK-293
Nature of the assay: Binding affinity for serotonin transporter ([3H]Imipramine). The conditions noted are these: HEK-293 membranes, 2 nM [3H]Imipramine. As for the experimental part: For serotonin transporter binding assays, a reaction mixture with a final volume of 0.25 ml was prepared by mixing a test compound, human serotonin transporter membrane expressed in HEK-293 cells (PerkinElmer, 5 ug/well), [^3H]Imipramine (PerkinElmer, 2 nM) and 50 mM Tris-HCl (pH 7.4) buffer containing 120 mM NaCl and 5 mM KCl. The reaction mixture was incubated for 30 min at 27, and harvested through filtermate. A glass fiber filter presoaked in 0.5% PEI with ice cold 50 mM Tris-HCl buffer (pH 7.4) containing 0.9% NaCl.

Assay [2] deals with T2, human recombinant 5-HT2C receptor (Homo sapiens, UniProt P28335).
T2 construct: purchased PerkinElmer
T2 sequence (P28335 33-458): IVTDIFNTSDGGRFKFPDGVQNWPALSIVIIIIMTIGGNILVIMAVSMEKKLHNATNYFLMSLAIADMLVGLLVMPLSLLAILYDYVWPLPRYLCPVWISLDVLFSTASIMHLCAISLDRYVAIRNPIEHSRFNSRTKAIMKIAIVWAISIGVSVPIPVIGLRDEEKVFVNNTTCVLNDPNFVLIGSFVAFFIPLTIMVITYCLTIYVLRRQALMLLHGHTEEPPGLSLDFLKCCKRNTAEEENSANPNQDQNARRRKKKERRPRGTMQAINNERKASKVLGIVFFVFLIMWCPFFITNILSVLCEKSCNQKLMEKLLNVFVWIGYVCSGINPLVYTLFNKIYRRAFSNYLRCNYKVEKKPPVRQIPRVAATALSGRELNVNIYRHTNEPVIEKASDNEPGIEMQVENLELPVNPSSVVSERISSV
The assay is described as follows: Binding affinity for serotonin 5-HT2C receptor ([3H]Mesulergine). The conditions noted are these: CHO-K1 membranes, 1.3 nM [3H]Mesulergine. As for the experimental part: Receptor binding affinities of the compounds for serotonin receptors were measured by the method described in the literature [Park W K et al., Pharmacol Biochem Behav.
(§1) The binding affinity (IC50) of a compound for the receptor was calculated by computerized nonlinear regression analysis (GraphPad Prism Program, San Diego, USA) using 7-8 varied concentrations of the compound run in duplicate tubes.
Nonspecific binding was determined using 100 uM mianserin. The incubations were performed for 60 min at 27, and these were terminated by rapid filtration through filtermate. A glass fiber filter presoaked in 0.5% PEI.

For assay [3], the target named is T3, human recombinant serotonin 5-HT2A receptor (Homo sapiens, UniProt P28223).
T3 construct: purchased PerkinElmer Life and Analytical Sciences, USA; host or cells: CHO-K1
The assay is described as follows: Binding affinity for serotonin 5-HT2A receptor ([3H]Ketanserin). The conditions noted are these: CHO-K1 expressed receptor, 1 nM [3H]Ketanserin. As for the experimental part:
Receptor binding affinities of the compounds for serotonin receptors were measured by the method described in the literature [Park W K et al., Pharmacol Biochem Behav. 2005, 82(2), 361-372].
For serotonin 5-HT2A binding, an aliquot of human recombinant serotonin 5-HT2A receptor (PerkinElmer Life and Analytical Sciences, USA) expressed in CHO-K1 cells (5 ug/well) and 1 nM [^3H]Ketanserin (PerkinElmer) were used in the presence of mianserin (20 uM) as nonspecific. The reaction mixture was incubated for 60 min at 27 using 50 mM Tris-HCl (pH 7.4) buffer containing 4 mM CaCl2 and 0.1% ascorbic acid, and harvested through filtermate A glass fiber filter (Wallac, Finland) presoaked in 0.5% polyethyleneimine (PEI) by microbeta filtermate-96 harvester (PerkinElmer) to terminate the reaction, and then washed with ice cold 50 mM Tris-HCl buffer solution (pH 7.4). The filter was then covered with MeltiLex, sealed in a sample bag, dried in an oven. The radioactivity retained in the filter was finally counted using MicroBeta Plus (Wallac).
as §1

T1 sequence (P31645 whole entry): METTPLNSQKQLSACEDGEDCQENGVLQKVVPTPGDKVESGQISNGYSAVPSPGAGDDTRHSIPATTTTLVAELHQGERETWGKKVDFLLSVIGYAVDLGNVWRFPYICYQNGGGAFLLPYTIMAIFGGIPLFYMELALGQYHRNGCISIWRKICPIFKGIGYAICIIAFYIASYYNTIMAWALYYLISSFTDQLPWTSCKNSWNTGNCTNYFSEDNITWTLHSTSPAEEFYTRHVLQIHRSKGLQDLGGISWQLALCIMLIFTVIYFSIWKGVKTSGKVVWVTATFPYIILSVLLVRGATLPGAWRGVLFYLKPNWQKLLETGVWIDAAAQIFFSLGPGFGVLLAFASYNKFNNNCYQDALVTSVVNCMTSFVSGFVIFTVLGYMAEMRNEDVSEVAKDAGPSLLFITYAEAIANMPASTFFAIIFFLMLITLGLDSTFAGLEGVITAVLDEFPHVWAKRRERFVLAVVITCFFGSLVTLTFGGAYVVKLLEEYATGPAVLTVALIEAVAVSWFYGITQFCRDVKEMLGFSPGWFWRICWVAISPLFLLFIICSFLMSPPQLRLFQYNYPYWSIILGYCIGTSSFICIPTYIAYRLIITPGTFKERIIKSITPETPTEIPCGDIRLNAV
T3 sequence (P28223 whole entry): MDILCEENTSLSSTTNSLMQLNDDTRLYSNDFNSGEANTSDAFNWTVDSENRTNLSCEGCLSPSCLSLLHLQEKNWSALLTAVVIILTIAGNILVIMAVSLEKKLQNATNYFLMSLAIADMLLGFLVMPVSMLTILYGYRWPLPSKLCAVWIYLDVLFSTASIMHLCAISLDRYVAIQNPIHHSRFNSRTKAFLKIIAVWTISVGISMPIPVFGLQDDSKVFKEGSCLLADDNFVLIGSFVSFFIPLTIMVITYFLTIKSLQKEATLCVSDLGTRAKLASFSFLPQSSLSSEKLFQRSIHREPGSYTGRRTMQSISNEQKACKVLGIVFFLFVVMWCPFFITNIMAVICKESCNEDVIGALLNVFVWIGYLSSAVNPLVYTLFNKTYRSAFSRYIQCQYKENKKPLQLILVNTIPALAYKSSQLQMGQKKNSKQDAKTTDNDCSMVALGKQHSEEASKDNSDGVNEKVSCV

As a reminder, the IC50 is the midpoint of a concentration-inhibition curve. For `Cc1c(C(=O)NCCCN2CCN(c3cccc(Cl)c3)CC2)cc(-c2ccccc2)n1C` [Example 1, N-(3-(4-(3-chlorophenyl)piperazin-1-yl)propyl)-1,2-dimethyl-5-phenyl-1H-pyrrole-3-carboxamide], the IC50 in assay [1] came to 11.1 nM; in assay [2], 160 nM; in assay [3], 92 nM.

With `Cc1cccc(N2CCN(CCCNC(=O)c3cc(-c4ccccc4)n(C)c3C)CC2)c1C` [Example 3, N-(3-(4-(2,3-dimethylphenyl)piperazin-1-yl)propyl)-1,2-dimethyl-5-phenyl-1H-pyrrole-3-carboxamide], the IC50 in assay [1] came out at 11.8 nM; in assay [2], 133 nM; in assay [3], 57 nM.

Regarding `CCn1c(-c2ccccc2)cc(C(=O)NCCCN2CCN(c3cccc(Cl)c3)CC2)c1C` [Example 4, N-(3-(4-(3-chlorophenyl)piperazin-1-yl)propyl)-1-ethyl-2-methyl-5-phenyl-1H-pyrrole-3-carboxamide], the IC50 in assay [1] worked out at 25.8 nM; in assay [2], 192 nM; in assay [3], 92 nM.

Consider `CCn1c(-c2ccccc2)cc(C(=O)NCCCN2CCN(c3cccc(C)c3C)CC2)c1C` [Example 5, N-(3-(4-(2,3-dimethylphenyl)piperazin-1-yl)propyl)-1-ethyl-2-methyl-5-phenyl-1H-pyrrole-3-carboxamide], for which the concentration for half-maximal inhibition (IC50) in assay [1] was found to be 35.9 nM; in assay [2] it was 139 nM; in assay [3], 75 nM.

With `CCCn1c(-c2ccccc2)cc(C(=O)NCCCN2CCN(c3cccc(Cl)c3)CC2)c1C` [Example 6, N-(3-(4-(3-chlorophenyl)piperazin-1-yl)propyl)-2-methyl-5-phenyl-1-propyl-1H-pyrrole-3-carboxamide], the results for the IC50 in assay [1], in assay [2] and in assay [3] were 93 nM, 273 nM and 191 nM, respectively.

As for `Cc1c(C(=O)NCCCN2CCN(c3cccc(Cl)c3Cl)CC2)cc(-c2ccccc2)n1C` [Example 10, N-(3-(4-(2,3-dichlorophenyl)piperazin-1-yl)propyl)-1,2-dimethyl-5-phenyl-1H-pyrrole-3-carboxamide], the IC50 came out at 61.7 nM in assay [1], 12 nM in assay [2] and 46.2 nM in assay [3].

As to `CCn1c(-c2ccccc2)cc(C(=O)NCCCN2CCN(c3cccc(Cl)c3Cl)CC2)c1C` [Example 11, N-(3-(4-(2,3-dichlorophenyl)piperazin-1-yl)propyl)-1-ethyl-2-methyl-5-phenyl-1H-pyrrole-3-carboxamide], the 50% inhibitory concentration (IC50) in assay [1] turned out to be 182 nM; in assay [2] it was 66 nM; in assay [3], 376 nM.

On to `CCCn1c(-c2ccccc2)cc(C(=O)NCCCN2CCN(c3cccc(Cl)c3Cl)CC2)c1C` [Example 12, N-(3-(4-(2,3-dichlorophenyl)piperazin-1-yl)propyl)-2-methyl-5-phenyl-1-propyl-1H-pyrrole-3-carboxamide], for which the results for the IC50 in assay [1], in assay [2] and in assay [3] were 420 nM, 628 nM and 324 nM, respectively.

For the molecule `Cc1c(C(=O)NCCCN2CCN(c3cccc(Cl)c3Cl)CC2)cc(-c2ccccc2)n1N1CCCCC1` [Example 13, N-(3-(4-(2,3-dichlorophenyl)piperazin-1-yl)propyl)-2-methyl-5-phenyl-1-(piperidin-1-yl)-1H-pyrrole-3-carboxamide], the half-inhibitory concentration (IC50) in assay [1] worked out at 298 nM; in assay [2], 795 nM; in assay [3] it was 67.1 nM.

For the molecule `Cc1c(C(=O)NCCCN2CCN(c3cccc(Cl)c3)CC2)cc(-c2ccccc2)n1-c1ccc(F)cc1` [Example 14, N-(3-(4-(3-chlorophenyl)piperazin-1-yl)propyl)-1-(4-fluorophenyl)-2-methyl-5-phenyl-1H-pyrrole-3-carboxamide], the IC50 is 80.2 nM in assay [1], 443 nM in assay [2] and 22.9 nM in assay [3].

Take `Cc1cccc(N2CCN(CCCNC(=O)c3cc(-c4ccccc4)n(-c4ccc(F)cc4)c3C)CC2)c1C` [Example 15, N-(3-(4-(2,3-dimethylphenyl)piperazin-1-yl)propyl)-1-(4-fluorophenyl)-2-methyl-5-phenyl-1H-pyrrole-3-carboxamide]: the IC50 in assay [1] amounted to 53.6 nM; in assay [2], 162 nM; in assay [3], 6.9 nM.

Consider `Cc1c(C(=O)NCCCN2CCN(c3cccc(Cl)c3Cl)CC2)cc(-c2ccccc2)n1-c1ccc(F)cc1` [Example 16, N-(3-(4-(2,3-dichlorophenyl)piperazin-1-yl)propyl)-1-(4-fluorophenyl)-2-methyl-5-phenyl-1H-pyrrole-3-carboxamide], for which the half-maximal inhibitory concentration (IC50) in assay [1] is 266 nM; in assay [2], 466 nM; in assay [3] it was 4.1 nM.

For `Cc1cccc(N2CCN(CCCNC(=O)c3cc(-c4ccccc4)n(Cc4ccccc4)c3C)CC2)c1C` [Example 18, 1-Benzyl-N-(3-(4-(2,3-dimethylphenyl)piperazin-1-yl)propyl)-2-methyl-5-phenyl-1H-pyrrole-3-carboxamide], the results for the IC50 in assay [1], in assay [2] and in assay [3] were 14.3 nM, 297 nM and 224 nM, respectively.

As to `Cc1c(C(=O)NCCN2CCN(c3cccc(Cl)c3Cl)CC2)cc(C(C)(C)C)n1C` [Example 169, 5-tert-butyl-N-(2-(4-(2,3-dichlorophenyl)piperazin-1-yl)ethyl)-1,2-dimethyl-1H-pyrrole-3-carboxamide], the IC50 in assay [3] turned out to be 57 nM.

For `Cc1c(Cl)cccc1N1CCN(CCNC(=O)c2cc(-c3ccccc3)n(C)c2C)CC1` [Example 184, N-(2-(4-(3-chloro-2-methylphenyl)piperazin-1-yl)ethyl)-1,2-dimethyl-5-phenyl-1H-pyrrole-3-carboxamide], the IC50 in assay [2] stood at 233 nM; in assay [3] it was 152 nM.

In the case of `Cc1ccc2cccc(N3CCN(CCNC(=O)c4cc(-c5ccccc5)n(C)c4C)CC3)c2n1` [Example 185, 1,2-dimethyl-N-(2-(4-(2-methylquinolin-8-yl)piperazin-1-yl)ethyl)-5-phenyl-1H-pyrrole-3-carboxamide], the IC50 is 554 nM in assay [2] and 761 nM in assay [3].

In the case of `Cc1c(C(=O)NCCN2CCN(c3cccc(Cl)c3F)CC2)cc(C(C)(C)C)n1C` [Example 186, 5-tert-butyl-N-(2-(4-(3-chloro-2-fluorophenyl)piperazin-1-yl)ethyl)-1,2-dimethyl-1H-pyrrole-3-carboxamide], the IC50 in assay [2] was found to be 293 nM; in assay [3], 121 nM.

On to `Cc1c(Cl)cccc1N1CCN(CCNC(=O)c2cc(C(C)(C)C)n(C)c2C)CC1` [Example 187, 5-tert-butyl-N-(2-(4-(3-chloro-2-methylphenyl)piperazin-1-yl)ethyl)-1,2-dimethyl-1H-pyrrole-3-carboxamide], for which the concentration for half-maximal inhibition (IC50) in assay [2] was determined as 210 nM; in assay [3], 54 nM.

For `Cc1ccc2cccc(N3CCN(CCNC(=O)c4cc(C(C)(C)C)n(C)c4C)CC3)c2n1` [Example 188, 5-tert-butyl-1,2-dimethyl-N-(2-(4-(2-methylquinolin-8-yl)piperazin-1-yl)ethyl)-1H-pyrrole-3-carboxamide], the IC50 was 1500 nM in assay [2] and 1480 nM in assay [3].

As to `Cc1cccc(N2CCN(CCNC(=O)c3cc(C(C)(C)C)n(C)c3C)CC2)c1C` [Example 189, 5-tert-butyl-N-(2-(4-(2,3-dimethylphenyl)piperazin-1-yl)ethyl)-1,2-dimethyl-1H-pyrrole-3-carboxamide], the IC50 in assay [2] was 227 nM.

For the molecule `CCn1c(C(C)(C)C)cc(C(=O)NCCCN2CCN(c3cccc(C)c3C)CC2)c1C` [Example 190, 5-tert-butyl-N-(3-(4-(2,3-dimethylphenyl)piperazin-1-yl)propyl)-1-ethyl-2-methyl-1H-pyrrole-3-carboxamide], the concentration for half-maximal inhibition (IC50) is 1140 nM in assay [2] and 386 nM in assay [3].
